Results: patent US8921383B2, “Thiazolopyrimidine compounds” (Hoffmann-La Roche Inc., priority 2011, dated 2014)

What follows are compounds tested against T1, purified recombinant human SYK360-635 (Homo sapiens, UniProt P43405) (assay: SYK kinase assay: 33P γATP incorporation into biotinylated peptide substrate, IC50 determination). Conditions: SYK 0.5 nM, ATP 20 μM, DYE peptide 5 μM, 30° C. 15 min; read-out: IC50 h-syk-gst-sf9-c (inactive-dephosphorylated).
T1 construct: truncated construct of Spleen Tyrosine Kinase aa 360-635; GST; made in house
Format: biochemical
Description: Determination of IC50 of Spleen Tyrosine Kinase (SYK) Inhibition:
SYK kinase assay is a standard kinase assay adapted to a 96 well plate format. This assay is performed in 96-well format for IC50 determination with […] which represented 10 half log dilutions and a 40 μL reaction volume. The assay measures the incorporation of radiolabeled ^33P γATP into an N-terminally biotinylated peptide substrate, derived from naturally occurring phosphoacceptor consensus sequence (Biotin-11aa DY*E). Phosphorylated products were detected upon termination of reactions with EDTA and the addition of Streptavidin coated beads.
Assay plates: 96-well MultiScreen 0.65 um filter plates (Millipore Cat. No.: MADVNOB10)
BSA: Bovine Serum Albumin Fraction V, fatty acid free (Roche Diagnostics GmbH, Cat. No. 9100221) diluted to a final concentration of 0.1%
Assay Dilution Buffer (ADB): 50 mM HEPES, 0.1 mM EGTA, 0.1 mM Na Vanadate, 0.1 mM β-glycerophosphate, 10 mM MgCl2, 1 mM DTT, 0.1% BSA, pH 7.5
Bead wash buffer: 10 g/L PBS (Phosphate buffered saline) with 2M NaCl+1% phosphoric acid.
DMSO and the mixture was incubated for 10 min at RT.
The kinase reaction was initiated by the addition of 10 μL 4× substrate cocktail containing the DYE peptide substrate [0 or 5 μM], ATP [20 μM] and ^33PγATP [2 μCi/r×n]. After incubation at 30° C. for 15 min, the reaction was terminated by the transfer of 25 μL of the reaction sample to a 96 well 0.65 μm Millipore MADVNOB membrane/plate containing 200 μL 5 mM EDTA and 20% Streptavidine coated beads in PBS.
After the last wash membrane/plates were transferred to an adaptor plate, heat dried for 15 min at 60° C., and 50 μL scintillation cocktail was added to each well and 4 h later the amount of radioactivity was counted in a top counter.

IC50 [nM]	Structure (SMILES)
1690	COc1ccc(Nc2nc(N3CCCC(C(=O)Nc4ccc5[nH]ncc5c4)C3)nc3scnc23)cc1OC (stereo not shown) [Compound I-41, 1-(7-(3,4-Dimethoxyphenylamino)thiazolo[5,4-d]pyrimidin-5-yl)-N-(1H-indazol-5-yl)piperidine-3-carboxamide]
40	COc1ccc(Nc2nc(N3CCC(NC(=O)c4ccc(C(=O)O)c(O)c4)C3)nc3scnc23)cc1OC (stereo not shown) [Compound I-9, 4-(1-(7-(3,4-Dimethoxyphenylamino)thiazolo[5,4-d]pyrimidin-5-yl)pyrrolidin-3-ylcarbamoyl)-2-hydroxybenzoic acid]
278	COc1ccc(Nc2nc(-c3ccc(C(=O)NCCN(C)C)cc3)nc3scnc23)cc1OC [Compound I-66, 4-(7-(3,4-Dimethoxyphenylamino)thiazolo[5,4-d]pyrimidin-5-yl)-N-(2-(dimethylamino)ethyl)benzamide]
882	COc1ccc(Nc2nc(N3CCC(NC(=O)c4ccc5c(c4)NC(=O)C5)C3)nc3scnc23)cc1OC (stereo not shown) [Compound I-8, N-(1-(7-(3,4-Dimethoxyphenylamino)thiazolo[5,4-d]pyrimidin-5-yl)pyrrolidin-3-yl)-2-oxoindoline-6-carboxamide]
60	COc1ccc(Nc2nc(-c3cccc(/C=C/c4ccc(C(=O)O)cc4)c3)nc3scnc23)cc1OC [Compound I-32, (E)-4-(3-(7-(3,4-Dimethoxyphenylamino)thiazolo[5,4-d]pyrimidin-5-yl)styryl)benzoic acid]
592	COc1ccc(Nc2nc(-c3cccc(C(F)=Cc4ccc(C(=O)O)cc4)c3)nc3scnc23)cc1OC (stereo in doubt) [Compound I-31, 4-((E)-2-{3-[7-(3,4-Dimethoxy-phenylamino)-thiazolo[5,4-d]pyrimidin-5-yl]-phenyl}-2-fluoro-vinyl)-benzoic acid]
18	COc1ccc(Nc2nc(-c3cccc(CNc4ccc(C(=O)O)cc4)c3)nc3scnc23)cc1OC [Compound I-30, 4-(3-(7-(3,4-Dimethoxyphenylamino)thiazolo[5,4-d]pyrimidin-5-yl)benzylamino)benzoic acid]
418	COc1ccc(Nc2nc(N3CCC(NC(=O)c4ccc5[nH]ncc5c4)C3)nc3scnc23)cc1OC (stereo not shown) [Compound I-35, N-(1-(7-(3,4-Dimethoxyphenylamino)thiazolo[5,4-d]pyrimidin-5-yl)pyrrolidin-3-yl)-1H-indazole-5-carboxamide]
71	CNC(=O)c1ccc(NC(=O)c2cccc(-c3nc(Nc4ccc(OC)c(OC)c4)c4ncsc4n3)c2)cc1 [Compound I-3, 3-(7-(3,4-Dimethoxyphenylamino)thiazolo[5,4-d]pyrimidin-5-yl)-N-(4-(methylcarbamoyl)phenyl)benzamide]
1110	COc1cc(Nc2nc(-c3ccc(C(N)=O)cc3)nc3scnc23)cc(N2CCC[C@@H]2C)c1 [Compound I-60, 4-{7-[3-Methoxy-5-((S)-2-methyl-pyrrolidin-1-yl)-phenylamino]-thiazolo[5,4-d]pyrimidin-5-yl}-benzamide]
922	COc1ccc(Nc2nc(N3CCCC(C(=O)Nc4ccc5cn[nH]c5c4)C3)nc3scnc23)cc1OC (stereo not shown) [Compound I-45, 1-(7-(3,4-Dimethoxyphenylamino)thiazolo[5,4-d]pyrimidin-5-yl)-N-(1H-indazol-6-yl)piperidine-3-carboxamide]
1950	COC(=O)c1ccc(C(=O)NC2CCN(c3nc(Nc4ccc(OC)c(OC)c4)c4ncsc4n3)C2)cn1 (stereo not shown) [Compound I-38, Methyl 5-(1-(7-(3,4-dimethoxyphenylamino)thiazolo[5,4-d]pyrimidin-5-yl)pyrrolidin-3-ylcarbamoyl)picolinate]
45	COc1ccc(Nc2nc(-c3cccc(C(=O)Nc4ccc(-c5nnc(S)o5)cc4)c3)nc3scnc23)cc1OC [Compound I-15, 3-[7-(3,4-Dimethoxy-phenylamino)-thiazolo[5,4-d]pyrimidin-5-yl]-N-[4-(5-mercapto-[1,3,4]oxadiazol-2-yl)-phenyl]-benzamide]
